Test results published in patent US4055658A, “Cyanomethylphenethanolamines” (Mead Johnson & Company, priority 1976, dated 1977).
Where two headings read alike, the source gives them in different places.

How the values were obtained:
guinea pig trachea = assay: Effect on spontaneous tone of guinea pig tracheal chain preparations; details: Cavia porcellus; in vitro, bath concentration; read-out: effective bath concentration (EC) providing a 50% decrease in the spontaneous tone of the guinea pig trachea
Source text: (§1) Two in vitro test systems particularly useful in determining selective beta stimulant activity are: (1) effect on spontaneous tone of guinea pig tracheal chain preparations as a measure of relaxant effect on airway smooth muscle, and (2) effect on force and rate of spontaneously beating right atria of the guinea pig as a measure of beta-stimulant effect on cardiac muscle. If a beta-adrenergic agent exerts an effect on spontaneous tone of guinea pig trachea at a concentration lower than is required to affect heart force and rate, there is a positive separation ratio and the agent is considered to have bronchodilator activity with minimal cardiac stimulation. Thus, a comparison of the test agent with standard beta-stimulants such as isoproterenol or other beta-adrenergic agents can be made and relative bronchial selectivity determined.

guinea pig right atria = assay: Effect on force and rate of spontaneously beating right atria of the guinea pig; details: Cavia porcellus, in vitro
Source text: as §1

[1] = tested on: methacholine-induced bronchoconstriction; assay: Methacholine-induced bronchoconstriction in anesthetized rat; format: in vivo; details: intraduodenal
Experimental: (§2) In the rat, transient bronchoconstriction is induced with a short-lasting intravenous (i.v.) infusion of methacholine to obtain a control value and at various times thereafter following intraduodenal (i.d.) administration of the test drug. Doses of test drug blocking methacholine induced bronchoconstriction are determined. In the dog, sustained bronchoconstriction is induced by continuous i.v. infusion of serotonin and doses of test drug necessary to reverse the bronchoconstriction are determined. In both animal models, measurements of cardiovascular effects from test drug is made simultaneously with the determination of the dose reversing bronchoconstriction. These in vivo comparisons are considered particularly significant since the bronchoconstriction induced resembles asthma and intraduodenal drug dosing of the anesthetized animal (i.e., rat) is similar to oral administration to a conscious animal. In the rat, 2-hydroxy-5-[1-hydroxy-2-[(1,1-dimethyl-2-phenylethyl)animo]ethyl]benzeneacetonitrile hydrochloride at a dose of 0.5 mg./kg. and 2.0 mg./kg. of body weight antagonizes methacholine-induced bronchoconstriction by 33.5 ± 5.2% and 72.3 ± 4.0%, respectively.

[2] = tested on: serotonin-increase pulmonary airway resistance; assay: Serotonin-induced sustained bronchoconstriction in anesthetized dog; format: in vivo
Experimental: as §2

heart rate [3] = assay: Cardiovascular effect (heart rate) measured simultaneously in the rat model; format: in vivo; details: 0.5 and 2.0 mg./kg.
Experimental: as §2

heart rate [4] = assay: Cardiovascular effect (heart rate) measured simultaneously in the dog model; format: in vivo; details: 0.125 and 0.5 mg./kg.
Experimental: as §2

In the case of `CC(C)(Cc1ccccc1)NCC(O)c1ccc(O)c(CC#N)c1.Cl` (stereo not drawn) [2-Hydroxy-5-[1-hydroxy-2-[(1,1-dimethyl-2-phenylethyl)amino]ethyl]benzeneacetonitrile Hydrochloride], the EC50 (guinea pig trachea) is reported as 0.0055 ± 0.0008 µg/mL, the EC50 (guinea pig right atria; force, read-out: EC50 increasing the force of guinea pig right atria) is reported as 0.16 ± 0.028 µg/mL and the EC50 (guinea pig right atria; rate, read-out: EC50 increasing the rate of guinea pig right atria) is reported as 0.33 ± 0.1 µg/mL. For the same compound, the “antagonism of methacholine-induced bronchoconstriction” value ([1]; 0.5 mg./kg. of body weight) was 33.5 ± 5.2%, the “antagonism of methacholine-induced bronchoconstriction” value ([1]; 2.0 mg./kg. of body weight) was 72.3 ± 4.0% and the “reduction of serotonin-increase pulmonary airway resistance” value ([2]; 0.125 mg./kg. body weight) was 49.7 ± 13.4%. The “reduction of serotonin-increase pulmonary airway resistance” value ([2]; 0.5 mg./kg. body weight) was 96.7 ± 12.3%, the “effect on heart rate at bronchodilating doses” value (heart rate [3]) was “without appreciably affecting heart rate” and the “effect on heart rate at bronchodilating doses” value (heart rate [4]) was “without appreciably affecting heart rate”.
